Reference: patent US20260274892A1, “MACROCYCLIC BROAD SPECTRUM ANTIBIOTICS” (RQx Pharmaceuticals, Inc., priority 2017, published 2026)

System: Escherichia coli ATCC 25922
Test: Minimum inhibitory concentration (MIC), CLSI broth micro-dilution, E. coli
Assay type: cell-based
Conditions: Escherichia coli
How it was run: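 Colonies grown 20 h at 35° C on Trypticase Soy agar (MRSA) or Luria agar (E. coli) were suspended in cation-adjusted Mueller Hinton broth with 0.002% Tween-80. Suspensions were added at OD600 0.0005 to 10-point twofold compound dilutions, then incubated 22 h at 35° C.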

[1] = ATCC25922, 22 h, Table 7, cation adjusted Mueller Hinton Broth + 0.002% Tween-80, 35° C.

Compound | MIC [1] [µM] | further results
Cc1nc(-c2ccc(OC3CCCCC3)cc2)nc(C)c1C(=O)N[C@@H](CNS(N)(=O)=O)C(=O)N[C@@H]1C(=O)N[C@@H](C)C(=O)N[C@H](C(=O)NCC#N)Cc2ccc(OCCN)c(c2)-c2cc1ccc2OCCN (racemic) [Compound 573, rac-(8S,11S,14S)-3,18-bis(2-aminoethoxy)-N-(cyanomethyl)-11-methyl-10,13-dioxo-14-[[rac-(2S)-2-[[2-[4-(cyclohexoxy)phenyl]-4,6-dimethyl-pyrimidine-5-carbonyl]amino]-3-(sulfamoylamino)propanoyl]amino]-9,12-diazatricyclo[13.3.1.12,6]icosa-1(18),2(20),3,5,15(19),16-hexaene-8-carboxamide] | 0.5 | –
Cc1nc(-c2ccc(C(C)(C)C)cc2)nc(C)c1C(=O)N[C@@H](CCN)C(=O)N(C)[C@@H]1C(=O)N[C@@H](C)C(=O)N[C@H](C(=O)NCC#N)Cc2ccc(OC[C@H](O)CN)c(c2)-c2cc1cc(OCCN)c2O (racemic) [Compound 587, rac-(8S,11S,14S)-17-(2-aminoethoxy)-N-(cyanomethyl)-18-hydroxy-11-methyl-14-[methyl-[rac-(2S)-4-amino-2-[[2-(4-tert-butylphenyl)-4,6-dimethyl-pyrimidine-5-carbonyl]amino]butanoyl]amino]-10,13-dioxo-3-[rac-(2R)-3-amino-2-hydroxy-propoxy]-9,12-diazatricyclo[13.3.1.12,6]icosa-1(18),2(20),3,5,15(19),16-hexaene-8-carboxamide] | 0.094 | –
Cc1nc(-c2ccc(C(C)(C)C)cc2)nc(C)c1C(=O)N[C@@H](CCN)C(=O)N(C)[C@@H]1C(=O)N[C@@H](C)C(=O)N[C@H](C(=O)NCC#N)Cc2ccc(O)c(c2)-c2cc1ccc2OCCCNC(=N)N (racemic) [Compound 596, rac-(8S,11S,14S)-N-(cyanomethyl)-18-(3-guanidinopropoxy)-3-hydroxy-11-methyl-14-[methyl-[rac-(2S)-4-amino-2-[[2-(4-tert-butylphenyl)-4,6-dimethyl-pyrimidine-5-carbonyl]amino]butanoyl]amino]-10,13-dioxo-9,12-diazatricyclo[13.3.1.12,6]icosa-1(18),2(20),3,5,15(19),16-hexaene-8-carboxamide] | 0.5 | –
Cc1nc(-c2ccc(N3[C@H](C)CCC[C@@H]3C)cc2)nc(C)c1C(=O)N[C@@H](CCN)C(=O)N(C)[C@@H]1C(=O)N[C@@H](C)C(=O)N[C@H](C(=O)NCC#N)Cc2ccc(OCCN)c(c2)-c2cc1ccc2OCCN (racemic) [Compound 555, rac-(8S,11S,14S)-3,18-bis(2-aminoethoxy)-N-(cyanomethyl)-11-methyl-14-[methyl-[rac-(2S)-4-amino-2-[[4,6-dimethyl-2-[4-[rac-(2R,6S)-2,6-dimethyl-1-piperidyl]phenyl]pyrimidine-5-carbonyl]amino]butanoyl]amino]-10,13-dioxo-9,12-diazatricyclo[13.3.1.12,6]icosa-1(18),2(20),3,5,15(19),16-hexaene-8-carboxamide] | – | MIC (ATCC25922, 22 h, Table 6, cation adjusted Mueller Hinton Broth + 0.002% Tween-80, 35° C.): 0.19 µM
CCCCCCc1ccc(C(=O)N2C[C@H](N)CC2C(=O)N(C)[C@@H]2C(=O)N[C@@H](C)C(=O)N[C@H](C(=O)NCC#N)Cc3ccc(OCCN)c(c3)-c3cc2ccc3OCCN)c(C)c1 (mixture of isomers) [Compound 481, rac-(8S,11S,14S)-3,18-bis(2-aminoethoxy)-14-[[4-amino-1-(4-hexyl-2-methyl-benzoyl)pyrrolidine-2-carbonyl]-methyl-amino]-N-(cyanomethyl)-11-methyl-10,13-dioxo-9,12-diazatricyclo[13.3.1.12,6]icosa-1(18),2(20),3,5,15(19),16-hexaene-8-carboxamide] | – | MIC (ATCC25922, Table 6, cation adjusted Mueller Hinton Broth + 0.002% Tween-80, 35° C., 22 hours): 2.3 µM
